# Biological target: DNA gyrase (Escherichia coli, UniProt P0AES4+P0AES6)
# Assay: Inhibition of full length Escherichia coli DNA gyrase ATPase activity measured for 20 mins by lactate dehydrogenase assay
# Format: protein-complex assay
row,IC50 [µM],Compound
1,120,Cc1ccc(CCC(=O)O)cc1
2,180,Oc1ccc(Oc2ccc(C(F)(F)F)cc2)cc1
3,84,Cc1cc(Oc2ccc(Cl)cc2Cl)ccc1O
4,100,Oc1ccc(Oc2ccc(C(F)(F)F)cc2Cl)cc1
5,320,Oc1ccc(Oc2cccc(Cl)c2)cc1
6,270,Oc1ccc(Oc2ccc(Cl)cc2)cc1
7,120,Oc1ccc(Oc2ccc(Cl)cc2Cl)cc1
8,240,Oc1ccc(Oc2cccc(C(F)(F)F)c2)cc1

row,Compound,IC50 [µM]
1,CC(C)(c1ccccc1)c1ccc(O)cc1,390

# — ChEMBL document CHEMBL4257526, “Identification of an auxiliary druggable pocket in the DNA gyrase ATPase domain using fragment probes” (Medchemcomm, 2018)
